Patent US20230210819A1, “USE OF BENZISOSELAZOLE DERIVATIVE FOR ANTI-CORONAVIRUS AND CONTROL OF INTERSTITIAL LUNG DISEASE (ILD) RELATED TO CORONAVIRUS” (SHANGHAI YUANXI MEDICINE CORP., priority 2020, published 2023)

Legend:
Assay type in all cases: in vivo, C57 mice
[1] = test system: bleomycin-induced mouse lung disease model; experiment: Assay of lung tissues for hydroxyproline content, 24-h modeling; conditions: Dex 1-1.5 mg/kg i.p. every two days, day 35 of administration
Experimental: Animals of 24-h modeling were randomly divided into 5 groups according to the table below, 3 animals per control group and 5 animals per test group.
(§1) Drug administration began 24 h or 7 d after modeling. […] The day of the first administration was counted as D1, the next day as D2, and so forth. The normal groups and Model groups were given 200 µL of normal saline daily by gavage administration.
[…] 2 mL of pre-cooled normal saline was added. The tissues were cut into as many pieces as possible and centrifuged at 2000 rpm/min for 2 min, and the supernatant was discarded. • 2. To the precipitate was added 1 mL of RIPA lysis buffer (mixed protease inhibitor Cocktail was added in a ratio of 1:100 before use, and the resulting mixture was preserved on ice). […]
(II) Protein concentration assay by BCA • 1. […] A proper BCA working solution was freshly prepared according to the quantity of the standard substance and samples. […] The plate was incubated at 37° C. for 30 min, and the absorbance at 570 nm was measured on a microplate reader. The sample protein concentration was calculated from the standard curve.
(III) HYP level assay • 1. […] To each well was added 50 µL of terminating solution, and the absorbance was immediately measured at a wavelength of 450 nm. […]

[2] = test system: cytokines in bronchoalveolar lavage fluid; experiment: Inflammatory factor assay of bronchoalveolar lavage fluid by ELISA; conditions: Dex 1-1.5 mg/kg i.p. every two days
Experimental: (§2) Animals of 7-d modeling were randomly divided into 7 groups according to the table below, 6 animals per control group and 12 animals per test group.
as §1
(§3) After the mouse was fixed, its trachea and chest cavity were exposed, and the trachea and the esophagus were bluntly separated with an ophthalmic curved forceps. Two sutures were made between the trachea and the esophagus. An intravenous trocar was inserted into the trachea and ligated at the site where it entered the trachea and at its distal end. A 1 mL syringe was connected to draw in 1 mL of pre-cooled PBS and infuse it into the lung tissue. Significant filling in the lung could be seen with the naked eye. The infusion was stopped for 10 s and withdrawal was performed. The infusion/withdrawal cycle was repeated 3 times. The withdrawn BALF was transferred to a clean EP tube and centrifuged at 4° C., and the supernatant was collected and preserved at -80° C. The bronchoalveolar lavage fluid was assayed for inflammatory factors by ELISA.

[3] = test system: inflammatory cells in bronchoalveolar lavage fluid; experiment: Inflammatory cell assay of bronchoalveolar lavage fluid, 7-d modeling; conditions: Dex 1-1.5 mg/kg i.p. every two days
Experimental: as §2, §1
as §3, with “eye. The syringe was held” for “eye. The infusion was stopped”, “syringe was held for 10” for “infusion was stopped for 10”, “C. The cells were subjected to routine tests.” for “C. The bronchoalveolar lavage fluid was assayed for inflammatory factors by ELISA.”
Upon the end of the administration, the leukocytes (lymphocytes, neutrophils and monocytes) in the bronchoalveolar lavage fluids of the mice in the 7-d modeling groups were classified and counted.

[4] = second half of table, head taken from the 24th table

Q: Which results are given for `C[C@@H]1C[C@H]2[C@@H]3CCC4=CC(=O)C=C[C@]4(C)[C@@]3(F)[C@@H](O)C[C@]2(C)[C@@]1(O)C(=O)CO` [Dex, dexamethasone, reference compound]?
A: HY7P, hydroxyproline content in the lungs [1]: 2.25 ± 0.31 µg/mL; IFN-γ in bronchoalveolar lavage fluid [2]: 66.48 ± 4.88 pg/mL; NF-κB in bronchoalveolar lavage fluid [2]: 818.72 ± 119.21 pg/mL; PPAR-γ in bronchoalveolar lavage fluid [2]: 232.49 ± 39.00 pg/mL; Percent reduction in IL-1β in bronchoalveolar lavage fluid with respect to the Model group [2]: 23.21%; Percent reduction in IL-2 in bronchoalveolar lavage fluid with respect to the Model group [2]: 7.98%; Percent reduction in IL-6 in bronchoalveolar lavage fluid with respect to the Model group [2]: 55.36%; Percent reduction in NF-κB in bronchoalveolar lavage fluid with respect to the Model group [2]: 10.75%; Percent reduction in TGF-β in bronchoalveolar lavage fluid with respect to the Model group [2]: 15.87%; Percent reduction in TNF-α in bronchoalveolar lavage fluid with respect to the Model group [2]: 5.19%; TGF-β in bronchoalveolar lavage fluid [2]: 159.28 ± 11.09 pg/mL; Percent reduction in IFN-γ in bronchoalveolar lavage fluid with respect to the Model group ([2]; negative = increase): -100.30%; Percent reduction in PPAR-y in bronchoalveolar lavage fluid with respect to the Model group ([2]; negative = increase): -7.09%; IL-1β in bronchoalveolar lavage fluid [2, 4]: 9.59 ± 0.90 pg/mL; IL-2 in bronchoalveolar lavage fluid [2, 4]: 41.67 ± 4.69 pg/mL; IL-6 in bronchoalveolar lavage fluid [2, 4]: 12.84 ± 1.02 pg/mL; TNF-α in bronchoalveolar lavage fluid [2, 4]: 53.21 ± 0.90 pg/mL; Absolute leukocyte count in bronchoalveolar lavage fluid [3]: 0.57±0.02 10^9/L; Absolute lymphocyte count in bronchoalveolar lavage fluid [3]: 0.46±0.03 10^9/L; Absolute monocyte count in bronchoalveolar lavage fluid [3]: 0.03±0.01 10^9/L; Absolute neutrophil count in bronchoalveolar lavage fluid [3]: 0.0±0.01 10^9/L; Percent reduction in leukocytes in bronchoalveolar lavage fluid with respect to the Model group [3]: 45.32%; Percent reduction in lymphocytes in bronchoalveolar lavage fluid with respect to the Model group [3]: 47.51%; Percent reduction in monocytes in bronchoalveolar lavage fluid with respect to the Model group [3]: 46.43%; Percent reduction in neutrophils in bronchoalveolar lavage fluid with respect to the Model group [3]: 68.52%
